Reference: the NIST ThermoML archive (doi:10.1021/je060271a)

Conditions: 323.14 K, Liquid, Vibrating tube method

CCCCCCC(=O)OCC(COC(=O)CCCCCC)(COC(=O)CCCCCC)COC(=O)CCCCCC [pentaerythritol tetraheptanoate]
Conditions | mass density [kg/m3]
8083.9 kPa | 961.1
8112.2 kPa | 961
8146.4 kPa | 961.1
8174.7 kPa | 961.1
8204 kPa | 961.1
8239.5 kPa | 961.1
8270.3 kPa | 961.2
8300.6 kPa | 961.1
8335.1 kPa | 961.2
8358.1 kPa | 961.3
8377.9 kPa | 961.3
8401.4 kPa | 961.2
8421.2 kPa | 961.3
8441.4 kPa | 961.4
8465.3 kPa | 961.4
8485.9 kPa | 961.3
8506.7 kPa | 961.3
8527.9 kPa | 961.3
8548.6 kPa | 961.4
8573.6 kPa | 961.4
8594.5 kPa | 961.5
8619.3 kPa | 961.5
8640.2 kPa | 961.3
8661.6 kPa | 961.4
8682.6 kPa | 961.4
9244.8 kPa | 961.9
9604.8 kPa | 962.1
9745.2 kPa | 962.3
9761.3 kPa | 962.2
9775 kPa | 962.3
9934.6 kPa | 962.3
9965.6 kPa | 962.4
9979.5 kPa | 962.3
9996.2 kPa | 962.3
10025 kPa | 962.4
10042 kPa | 962.3
10056 kPa | 962.4
10453 kPa | 962.6
10957 kPa | 962.9
10974 kPa | 962.9
10995 kPa | 963
11012 kPa | 962.9
11032 kPa | 963
11050 kPa | 963.1
11067 kPa | 963
11088 kPa | 963
11123 kPa | 963.1
11141 kPa | 963.1
11162 kPa | 963.1
11180 kPa | 963.2
11202 kPa | 963.2
11220 kPa | 963.2
11238 kPa | 963.3
11259 kPa | 963.3
11278 kPa | 963.2
11296 kPa | 963.2
11317 kPa | 963.2
11335 kPa | 963.2
11354 kPa | 963.2
11679 kPa | 963.5
11702 kPa | 963.5
11722 kPa | 963.5
11742 kPa | 963.4
11765 kPa | 963.6
11786 kPa | 963.6
11806 kPa | 963.5
11826 kPa | 963.6
11850 kPa | 963.7
11871 kPa | 963.6
11892 kPa | 963.5
11914 kPa | 963.6
11934 kPa | 963.6
11958 kPa | 963.7
12004 kPa | 963.6
12461 kPa | 964
12560 kPa | 964
12657 kPa | 963.9
12708 kPa | 964
12732 kPa | 964
12784 kPa | 964.2
12808 kPa | 964.1
12962 kPa | 964.3
12986 kPa | 964.3
13011 kPa | 964.3
13041 kPa | 964.2
13066 kPa | 964.4
13090 kPa | 964.3
13120 kPa | 964.4
13146 kPa | 964.4
13171 kPa | 964.4
13202 kPa | 964.3
13252 kPa | 964.5
13283 kPa | 964.5
13308 kPa | 964.4
13334 kPa | 964.6
13365 kPa | 964.6
13391 kPa | 964.5
13418 kPa | 964.6
13449 kPa | 964.6
13475 kPa | 964.7
13502 kPa | 964.6
13533 kPa | 964.6
13560 kPa | 964.7
13587 kPa | 964.5
13619 kPa | 964.7
13645 kPa | 964.7
13678 kPa | 964.8
13705 kPa | 964.6
13732 kPa | 964.8
13760 kPa | 964.7
13793 kPa | 964.8
13822 kPa | 964.8
13850 kPa | 964.7
13884 kPa | 964.8
13912 kPa | 964.9
13940 kPa | 965
13969 kPa | 964.9
14002 kPa | 964.9
14031 kPa | 964.9
14065 kPa | 964.9
14094 kPa | 964.9
14124 kPa | 965
14159 kPa | 964.9
14217 kPa | 964.9
14254 kPa | 965
14374 kPa | 965
14411 kPa | 965.1
14441 kPa | 965.3
14478 kPa | 965.2
14509 kPa | 965.3
14540 kPa | 965.3
14571 kPa | 965.2
14777 kPa | 965.3
14810 kPa | 965.4
14849 kPa | 965.5
14883 kPa | 965.4
15305 kPa | 965.7
15364 kPa | 965.8
15393 kPa | 965.8
15404 kPa | 965.8
15412 kPa | 965.8
15421 kPa | 965.8
15430 kPa | 965.8
15440 kPa | 965.9
15449 kPa | 965.8
15460 kPa | 965.9
15468 kPa | 966
15477 kPa | 965.9
15488 kPa | 965.8
15497 kPa | 965.8
15506 kPa | 965.9
15514 kPa | 965.8
15525 kPa | 965.8
15534 kPa | 966
15543 kPa | 965.9
15554 kPa | 965.9
15563 kPa | 965.9
15573 kPa | 965.9
15582 kPa | 966
15591 kPa | 965.9
15600 kPa | 966
15611 kPa | 966
15620 kPa | 965.9
15658 kPa | 966.1
15667 kPa | 966
15678 kPa | 966
15687 kPa | 966
15698 kPa | 966.1
15716 kPa | 966.2
15756 kPa | 966.1
15853 kPa | 966.1
15873 kPa | 966.2
15882 kPa | 966.1
15893 kPa | 966.1
15912 kPa | 966.1
15923 kPa | 966
15933 kPa | 966.2
15942 kPa | 966.2
16746 kPa | 966.7
16758 kPa | 966.5
16768 kPa | 966.7
16779 kPa | 966.7
16792 kPa | 966.6
16801 kPa | 966.7
16813 kPa | 966.6
16924 kPa | 966.8
16935 kPa | 966.8
16947 kPa | 966.8
16960 kPa | 966.9
16970 kPa | 966.9
16981 kPa | 966.8
16993 kPa | 966.8
17004 kPa | 966.9
17223 kPa | 966.9
17236 kPa | 967
17329 kPa | 967.1
17342 kPa | 967.1
17353 kPa | 967.1
17364 kPa | 967.1
17378 kPa | 967.1
17401 kPa | 967
17522 kPa | 967
17659 kPa | 967.3
17673 kPa | 967.2
17685 kPa | 967.2
17697 kPa | 967.3
17708 kPa | 967.1
17722 kPa | 967.2
17734 kPa | 967.3
17784 kPa | 967.3
17798 kPa | 967.3
17885 kPa | 967.4
17912 kPa | 967.5
17924 kPa | 967.3
17938 kPa | 967.4
17950 kPa | 967.5
18001 kPa | 967.4
18171 kPa | 967.5
18199 kPa | 967.5
18211 kPa | 967.6
18226 kPa | 967.6
18239 kPa | 967.6
18252 kPa | 967.6
